# Measured values taken from patent US10555919B2, “Melatonin in autoimmune disease” (The Brigham and Women's Hopsital, Inc., priority 2014, dated 2020).
# Assays:
# [1] = tested on: murine Th17 cell differentiation; assay: In vitro mouse Th17 cell differentiation; format: cell-based; settings: for differentiation of Th17 cells (rorc, IL-17, IL-23 receptor): wild type, melatonin 2 ng/ml, agomelatine 20 ng/ml, ramelteon 10 ng/ml, CGP 52608 20 ng/ml
# Protocol: For intracellular cytokine staining, cells were stimulated for 4 h at 37° C. with phorbol 12-myristate 13-acetate (50 ng/ml; Sigma), ionomycin (1 μg/ml; Sigma) and monensin (GolgiStop; 1 μg/ml; BD Biosciences). After being stained for surface markers, cells were fixed and made permeable according to the manufacturer's instructions (BD Biosciences). All antibodies against cytokines were from Biolegend. All experiments were started at the same time (8-9 am). Data were collected with a LSR II or FACSAria (BD Biosciences), then were analyzed with FlowJo software (Treestar).
# (§1) Naive CD4+ T cells (CD4+CD44loCD62LhiCD25−) were from the spleen and lymph node of C57BL/6 wild-type, MTNR1A−, NFIL3−, REV-ERBα, C/EBPα-deficient or RORα-deficient mice using magnetic beads (CD4+ T cell isolation kit, Miltenyi Biotec). All experiments were started between 7 and 9 am. Cells were activated with plate-bound anti-CD3 (2 μg/ml; 14-0031-86; eBioscience) and anti-CD28 (2 μg/ml; 16-0281-86; eBioscience). Mouse IL-27 (30 ng/ml; 34-8271; Biolegend) was added for the generation of Tr1 cells. IL-6 (30 ng/ml; 406-ML-025; R&D Systems), TGF-β1 (15 ng/ml; 130-095-067; Miltenyi Biotec), anti-IL-4 (2.5 μg/ml; C17.8; Biolegend) and anti-IFN-γ (5 μg/ml; XMG1.2; Biolegend) were added for the generation of Th17 cells. Recombinant mouse IL-23 (30 ng/ml; 1887-ML-010; R&D Systems) was added at day 2. For some experiments IL-6 and […] (10 ng/ml; 401-ML-025; R&D Systems) or TGF-β1 and IL-21 (100 ng/ml; 594-ML-010; R&D Systems) were used in instead for Th17 cell differentiation. IL-12 (30 ng/ml; 419-ML-010; R&D Systems) and anti-IL-4 (2.5 μg/ml; C17.8; Biolegend) were used for the generation of Th1 cells. IL-4 (30 ng/ml; 404-ML-010; R&D Systems) and anti-IFN-γ (5 μg/ml; XMG1.2; Biolegend) was added for the generation of Th2 cells. TGF-β1 (15 ng/ml; 130-095-067; Miltenyi Biotec) was used for the generation of Foxp3+ Tregs. Melatonin (Gador, Argentina), Agomelatin, and CGP-52608 (Sigma-Aldrich) were added at the start of the cultures and at day 2, at a final concentration of 2-20 ng/ml.
# (§2) Secreted cytokines were measured in tissue culture supernatants after 72-96 hs by enzyme-linked immunosorbent assay as previously described (Farez et al., 2009).
# MT2 melatonin receptor = molecular target: T1, MT2 melatonin receptor (Homo sapiens, UniProt P49286); settings: nonselective ligand; cited from earlier work
# T1 sequence (P49286 1-362): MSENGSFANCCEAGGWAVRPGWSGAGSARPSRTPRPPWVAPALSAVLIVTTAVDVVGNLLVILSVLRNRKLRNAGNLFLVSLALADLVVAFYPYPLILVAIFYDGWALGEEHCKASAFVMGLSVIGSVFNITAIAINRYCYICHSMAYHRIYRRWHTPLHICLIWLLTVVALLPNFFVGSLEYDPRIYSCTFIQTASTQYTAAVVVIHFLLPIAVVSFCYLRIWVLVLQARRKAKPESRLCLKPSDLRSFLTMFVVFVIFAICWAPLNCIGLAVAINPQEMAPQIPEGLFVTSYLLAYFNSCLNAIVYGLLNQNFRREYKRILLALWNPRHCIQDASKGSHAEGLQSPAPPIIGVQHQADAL
# [2] = tested on: human CD4+ T cells activated under Th17 polarizing conditions; assay: In vitro human Th17 differentiation; format: cell-based; settings: 500 ng/ml
# Protocol: (§3) In vitro human T cell differentiation. For Th17 differentiation, naive CD45RA+ CD4+ T cells were isolated from PBMCs with magnetic beads (Naive Human CD4+ T Cell Isolation Kit II, Miltenyi Biotec) and seeded at a density of 5×10^5 cells/ml in 24-well plates coated with anti-CD3 and (2 μg/ml) and soluble anti-CD28 and cultured in the presence of the following cytokines IL-1β (25 ng/ml), IL-6 (50 ng/ml), and TGF-β1 (2 ng/ml) and neutralizing antibodies to IFN-g ([…]) and IL-4 (10 microgram/ml). Alternatively, Th17 cells were differentiated by using IL-1β (25 ng/ml), IL-6 (50 ng/ml), and IL-23 (50 ng/ml) and neutralizing antibodies to IFN-g ([…]) and IL-4 (10 microgram/ml). For Th1 differentiation naïve CD4+T cells are cultured in the presence of IL-12 (20 ng/ml) and anti-IL-4 (10 μg/ml).
# as §2
# human Th1 cells = assay: In vitro human Th1 differentiation; format: cell-based; settings: 500 ng/ml; IL-12
# Protocol: as §3
# [3] = tested on: nr1d1 reporter-transfected HEK293 cells; assay: nr1d1 promoter luciferase reporter assay; format: cell-based; settings: nr1d1 promoter controls luciferase expression
# Source text: The IL-10 promoter reporter and C-Maf and AhR vectors were previously described (Apetoh et al., 2010), vector expressing ROR-α were purchased from PlasmID at Harvard Medical School. Vectors coding for C/EBPα (44627) and Bmal reporter (46824) were purchased from Addgene. The retrovirus used for nfil3 overexpression in T cells was graciously provided by Laura Hooper (UT Southwestern, TX, USA). The retrovirus used for nr1d1 overexpression in T cells was graciously provided by Bart Staels (Institut Pasteur, Lille, France, […]). The nr1d1 promoter reporter was graciously provide by Vincent Laudent (Ecole Normale Supérieure, Lyon, France).
# HEK293 cells were grown in DMEM supplemented with 10% FBS and were transfected with FuGENE HD transfection reagent and 2 μg of each plasmids according the manufacturer's instructions (Roche). Firefly and renilla luciferase activity was analyzed 48 h after transfection and 24 h after treatment with a Dual Luciferase Assay kit (Promega).
# Tr1 cells = assay: In vitro mouse Tr1 cell differentiation; format: cell-based; settings: agomelatine 20 ng/ml, CGP 52608 20 ng/ml
# Protocol: as §1
# [4] = tested on: human CD4+ T cells activated under Tr1 polarizing conditions; assay: In vitro human Tr1 differentiation; format: cell-based; settings: 500 ng/ml
# Source text: We then studied the effects of melatonin on human CD4^+ T cells. In addition, we also analyzed the effects of agomelatine, which activates melatonin-dependent signaling (Hickie and Rogers, 2011). Based on the effects of melatonin administration on T cells during EAE, we focused our studies on human Th17 and Tr1 cells. Melatonin and agomelatine reduced the production of IL-17, RORC and IL17A expression by human CD4^+ T cells activated under Th17 polarizing conditions (FIGS. 3a-c and FIG. 8), no effect was detected on the differentiation of human Th1 cells (FIGS. 3d-f). Concomitantly, melatonin and agomelatine increased IL10 expression.
smiles,measurement,setting,value
"CCC(=O)NCC[C@@H]1CCc2ccc3c(c21)CCO3 [ramelteon, (S)—N-[2-(1,6,7,8-tetrahydro-2H-indeno[5,4-b]furan-8-yl)ethyl]propionamide]","differentiation of Th17 cells (rorc, IL-17, IL-23 receptor)",[1],suppressed
"CC(=O)NCCc1c(Cc2ccccc2)[nH]c2ccccc12 [Luzindole, N-[2-(2-benzyl-1H-indol-3-yl)ethyl]acetamide]",higher affinity for the MT2 melatonin receptor,MT2 melatonin receptor,15- to 25 fold
"COc1ccc2cccc(CCNC(C)=O)c2c1 [agomelatine, N-[2-(7-methoxynaphthalen-1-yl)ethyl]acetamide]","differentiation of Th17 cells (rorc, IL-17, IL-23 receptor)",[1],suppressed
same,"production of IL-17, RORC and IL17A expression",[2],reduced
same,IL10 expression,[2]; Th17 polarizing conditions,increased
same,differentiation of human Th1 cells,human Th1 cells,no effect
same,luciferase activity,[3],decreased
same,Tr1 cell differentiation,Tr1 cells,boosted
same,IL-10 production,[4],increased
CCOC(=O)N1CCC(CN(Cc2ccc(Cl)cc2)Cc2ccc([N+](=O)[O-])s2)C1 (stereo not drawn) [SR9009],differentiation into Th17 cells (RT-PCR),"[1]; SR9009 5 micromolar, 72 hr",suppresses
C=CCN1C(=O)CS/C1=N/NC(=S)NC [CGP 52608],"differentiation of Th17 cells (rorc, IL-17, IL-23 receptor)",[1],boosted
same,Tr1 cell differentiation,Tr1 cells,boosted
